What is called melting point is the temperature, or range, at which the solid turns liquid. In turn, `CCCCCc1c(C(C)C)nc(C(C)C)c(CO)c1-c1ccccc1C` showed a melting point of 81 to 83 °C.
Compound `O=c1cc(C(F)(F)F)[nH]n1-c1ccccc1` gave a melting point of 193 °C.
On to `CC(C)C1OC(=Nc2ccccn2)c2c1nc1c(C(F)(F)F)cccc1c2O` (configuration not stated), for which the melting point is 178 to 180 °C.
Turning to `COc1ccc(N2CCN(c3c(C)c(C)c4c(c3C)C(O)(CCc3ccccc3)C(C)(C)O4)CC2)cc1` (configuration not stated), the melting point is 124 to 126 °C.
In the case of `COc1c(N)ccc2c1C(=CC#N)CC2`, the melting point lay in the range of 140 to 142 °C.
`CC1(C)Oc2c(c(=O)n(Cc3ccccc3)c3ccccc23)[C@@H](N2CCCC2=O)[C@@H]1O` (relative stereo): the melting point is over 260 °C.
On to `CSc1ccc(C=O)cc1OC(C)C`, for which the melting point lay within 50 to 54 °C.
The figure for `COC(=O)C1=C(C)NC(C)=C(C(=O)OC)C1c1ccccc1F` is 206 to 208 °C; for `COC(=O)C(O)=CC(=O)c1cn(Cc2ccccc2)cc(Cc2ccccc2)c1=O` it is 148 to 150 °C.
In turn, `CC(=O)Oc1ccc(C(=NNc2cccc([N+](=O)[O-])c2)c2ccc(OC(C)=O)cc2)cc1` gave a melting point of 88 to 90 °C.
`OCCn1cc(-c2ccc3ncn(Cc4ccc5ncccc5c4)c3n2)cn1` registered a melting point of 160 to 163 °C.
`COc1ccc(CN2CCN(NC(=O)c3cc(Cl)c(N)cc3OC)CC2)cc1` returned a melting point of 154 to 156 °C.
The result for `O=C(NC1=NCCC1)Nc1ccc(Cl)cc1` reads 147 to 150 °C; that for `Cc1[nH]c(-c2ccc(F)cc2)c(N)c1C(=O)c1ccccc1`, 209 to 210 °C.
The figure for `NC(=O)c1ccn2c1CSC2` is 186 °C; for `Nc1c(OC[C@@H]2CO2)cccc1[N+](=O)[O-]` it is 107 to 109 °C.
The result for `COC(=O)c1ccc(-c2ccc3cc(OCCCCC=C=O)c(C45CC6CC(CC(C6)C4)C5)cc3c2)cc1` reads 209 to 210 °C; that for `Cn1cc(O)c(=O)c2ccccc21`, 235 to 240 °C.
In turn, `Fc1ccccc1-c1nncc2c(-c3ccccc3)c(OCc3ccccn3)nn12` registered a melting point of 182 to 183 °C.
`OC(CN1CCC(c2noc3cc(F)ccc23)CC1)CN1CCCc2ccccc21` (configuration not stated) came in with a melting point of 170 to 171 °C.
The figure for `CC(=O)NCCC(C)c1ccc(-c2ccc(Cl)cc2)cc1` (configuration not stated) is 118 to 120 °C; for `CCOC(=O)C1=C(COCC2(C)CO2)NC(C)=C(C(=O)OC)C1c1cccc(Cl)c1Cl` (configuration not stated) it is 107 to 112 °C; for `CC(C)[C@H](NS(=O)(=O)c1ccc(-c2ccc(Br)cc2)cc1)C(=O)O` it is 192 to 193 °C.
The figure for `Nc1cccc(SC2SCC(O)C(O)C2O)c1` (configuration not stated) is 128 to 132 °C; for `CN(C(=O)CN1C(=O)C(NC(=O)Nc2cccc(C#N)c2)N=C(CN2CCSCC2)c2ccccc21)c1ccccc1` (configuration not stated) it is 165 °C.
Consider `CCC(C)C(NC(c1ccccc1)c1ccccc1)P(O)O` (configuration not stated), for which the melting point was 174 to 176 °C.
For `CCn1c(=O)c(-c2ccc3ccccc3c2)cc2cnc(Nc3ccccc3)nc21`, the melting point fell in the range of 254 to 256 °C.
Compound `CCOC(=O)CC1(O)c2ccccc2C=Cc2ccccc21` gave a melting point of 93 to 99 °C.
Consider `CC1CC(C)CN(c2nccc(Oc3ccc(NC(=O)c4cc(F)cc(N5CCOCC5)c4)c4ccccc34)n2)C1` (configuration not stated), for which the melting point lay in the range of 102 to 104 °C.
`CC1(C)CCC(C)(C)c2cc([N+](=O)[O-])ccc21` returned a melting point of 46 to 50 °C.
`CC1CCn2c(nc(-c3ccncc3)cc2=O)N1` (configuration not stated) had a melting point of 245 to 247 °C.
The figure for `Cc1c(C(=O)O)ccc(Oc2cccnc2)c1S(C)(=O)=O` is 214 to 216 °C; for `N#CC=C1OC(=O)c2ccccc21` it is 178 to 180 °C.
In the case of `Cc1cc2ncc(-c3cccc(C(F)(F)F)c3)c(N)n2n1`, the melting point worked out at 176 °C.
Compound `CC1(C)CN=C(c2cc3cccc(NS(=O)(=O)c4cccs4)c3[nH]2)S1` came in with a melting point of 176 to 177 °C.
`Cc1nc2n(c(=O)c1CCN1CCC(c3noc4cc(F)ccc34)CC1)CC(O)CC2` (configuration not stated): the melting point amounted to 156 °C.
For the compound `CCOc1nc(O)ns1`, the melting point turned out to be 98 °C.
As to `C[C@@H](S[C@H]1CO[C@H](/C=C/c2cccnc2)OC1)[C@](O)(Cn1cncn1)c1ccc(F)cc1F`, the melting point fell in the range of 118 to 125 °C.
Compound `COc1ccc(C=Cc2cc(OC)cc(OC)c2)cc1` gave a melting point of 55 to 56 °C.
The compound `CCNS(=O)(=O)c1ccc(-c2cnc3[nH]c(CCc4cc(OC)ccn4)nc3c2)cc1` returned a melting point of 214 to 216 °C.
For the compound `CCC(CC)n1nnc2c(Nc3c(Cl)cc(OC)cc3OC)nc(C)cc21`, the melting point fell in the range of 168 to 169 °C.
As to `CC(O)(C(O)C(O)=Cc1ccccc1)C(O)(Br)C(O)C(O)=Cc1ccccc1` (configuration not stated), the melting point was in the range of 277 to 279 °C.
Consider `Cc1ccccc1N1CCN(CCc2ccc(N3CCCNC3=O)cc2)CC1`, for which the melting point lay within 127 to 128 °C.
The figure for `CCc1nn2c(I)cccc2c1N(CC)CCF` is 51.2 to 53.6 °C; for `O=C(NNS(=O)(=O)c1ccccc1)c1ccc(F)cc1Cl` it is 147 to 149 °C; for `Cc1cc2c(cc1C(=O)CBr)C(C)(C)CC(C)C2(C)C` (configuration not stated) it is 68 °C.
The result for `COc1ccc(-c2ccc(C)nc2-c2ccc(OCCN3CCOCC3)cc2)cc1` reads 66 to 67 °C; that for `CCCCCCCCOc1ccc(C(=O)Oc2cc(Cl)c(Cl)cc2Cl)cc1`, 53 °C; that for `COc1cc2cc(C(=O)OC(C)(C)C)c(N)cc2cc1OCc1ccccc1`, 179 to 180 °C.
Compound `Cc1cc(N)c2nccc(Cl)c2c1` displayed a melting point of 115 to 116 °C.
For `COc1cc2ccc(C(=O)C(C)C)cc2cc1OC`, the melting point was 103 to 105 °C.
The figure for `CNC(=O)c1cc(-c2ccc(OC)cc2)nn(C(C)C)c1=O` is 154 °C.
The figure for `COc1ccc2c(c1)c(CCc1cc(=O)n(C3CCCCC3)[nH]1)c(C)n2C(=O)c1ccc(Cl)cc1` is 110 °C.
With `CC(=O)OCC1CCc2c(C3=C(c4cn(C)c5ccccc45)C(=O)OC3=O)c3ccccc3n2C1` (configuration not stated), the melting point lay in the range of 190 to 193 °C.
The figure for `Fc1cc2c(c3cccnc13)OC(CN1CC=C(c3c[nH]c4ccccc34)CC1)CO2` (configuration not stated) is 215 °C.
The result for `CCCOc1ccccc1-c1ccc2c(c1)C=C(C(=O)Nc1ccc(CN(C)C3CCOCC3)cc1)CCS2(=O)=O` reads 190 to 192 °C.
`N#Cc1n[nH]c2nc(N3CCN(CCO)CC3)ccc12` returned a melting point of 232 to 233 °C.
In the case of `Nc1cc(-n2cncn2)ccc1[N+](=O)[O-]`, the melting point was in the range of 259 to 261 °C.
As to `COC1=C(C(=O)c2ccc(Cl)cc2Cl)C(=O)CCC1`, the melting point was in the range of 81 to 86 °C.
Compound `CC(C)(CCl)C(=O)N(O)Cc1ccc(Cl)cc1Cl` returned a melting point of 103 to 106 °C.
The compound `CC(=O)Nc1cccc(-n2ccnc2)c1` registered a melting point of 181 to 183 °C.
As to `Cn1nc(-c2ccccc2)c(C=Cc2ccccc2C(=O)O)c1Cl`, the melting point was in the range of 161 to 163 °C.
`CCC(=O)N1CCN(C(=O)OC2C3=C(SCC(OC)CS3)C(=O)N2c2ccc(Cl)cn2)CC1` (configuration not stated) returned a melting point of 160 °C.
The result for `CCOC(=O)C(=CNc1ccc(CC)nc1)C(=O)OCC` reads 55 to 57 °C; that for `CC(C)CCNC(=O)c1ccccc1-c1ccccc1CNS(=O)(=O)c1cccc(F)c1`, 141 °C.
Regarding `CC(O)(C(=O)O)c1cccc(OCc2ccc3ccccc3c2)c1` (single isomer, unassigned; (-)), the melting point was 104 to 106 °C.
In the case of `Fc1ccccc1Cn1cnc2c(Nn3cccc3)ncnc21`, the melting point is 204 to 206 °C.
The result for `CCCCc1nn(Cc2ccccc2C(=O)OC)c(=O)n1Cc1ccc(-c2ccccc2-c2nnn[nH]2)cc1` reads 79 to 80 °C; that for `CC(C)CCNc1nc(N2CCCCC2)nc2c(NCCC(C)C)nc(N3CCCCC3)nc12`, 192 to 194 °C; that for `O=C1C(=NO)Nc2c(Br)cccc21`, over 250 °C.
The figure for `COc1ccc(C(=O)Nc2ccccc2)cc1NCc1ccccc1` is 164 to 165 °C.
`COc1cc(OCC(=O)O)c(C)cc1SCc1cccc(-c2cccc(OC(F)(F)F)c2)c1` registered a melting point of 92 to 94 °C.
The figure for `CN1Cc2c(C#N)ncn2-c2ccsc2C1=O` is 206 to 208 °C; for `NC(=O)c1c(F)ccc(OCc2nc3ncccc3o2)c1F` it is 180 to 181 °C.
With `Cc1oc(-c2ccccc2)nc1CCOc1ccc(CC(Nc2ccccc2C(=O)c2ccccc2)C(=O)O)c2sccc12` (configuration not stated), the melting point was 124 to 127 °C.
Turning to `CC(=O)Nc1cccc(C(=O)NCc2ccc(-n3c(-c4cccnc4N)nc4cc(C)cnc43)cc2)c1`, the melting point fell in the range of 180 to 181 °C.
The compound `Cc1cccc2c(=O)n(C)c(-c3ccc(OC4CCN(C5CCC5)CC4)cc3)nc12` had a melting point of 152 to 154 °C.
`CC1CCC(N(CC2CCC(CN(C(=O)Nc3ccc(N(C)C)cc3)C3CCC(C)CC3)CC2)C(=O)Nc2ccc(N(C)C)cc2)CC1` (configuration not stated): the melting point fell in the range of 150 to 153 °C.
With `COC1(OC)C=Cc2cc(Cc3cnc(N)nc3N)cc(OCC3CC3)c2O1`, the melting point fell in the range of 204 to 206 °C.
The compound `COc1ccc(-n2c3ccccc3c3cc(C=C(C#N)c4ccc(F)c(F)c4F)ccc32)cc1` yielded a melting point of 124 to 126 °C.
The compound `O=C1O[C@@H](Cn2ccnn2)CN1c1ccc(-c2ccc(C(O)C3CC3)nc2)c(F)c1` (some centres not stated) displayed a melting point of 160 to 163 °C.
As to `CC1(C)CON(Cc2ccc(N3C(=O)c4cccnc4C3=O)cc2Cl)C1=O`, the melting point was in the range of 139 to 141 °C.
For `N=C(Nc1cc(NC(=O)/C=C/c2ccccc2Cl)cc(C(F)(F)F)c1)c1cccs1`, the melting point was 206 to 208 °C.
For the compound `CCN(CC)c1ccc(N=Nc2ccc(OCCOC)c(S(=O)(=O)Cl)c2)cc1`, the melting point was 103 to 104 °C.
For `CCOC(=O)c1cnn(-c2ncc(Cl)cc2Cl)c1N`, the melting point lay in the range of 98 to 101 °C.
Consider `CCCCCCc1ccc(-c2ncc(C#N)cn2)cc1`, for which the melting point lay within 86.3 to 87.8 °C.
Regarding `CC(C)(C)OC(=O)NCC(=O)Nn1cccc1C(=O)c1ccccc1Cl`, the melting point is 156 to 158 °C.

For the origin of these results see a melting point compilation (Tetko et al.; mined from patent text by program, amines drawn as free bases though some values may be those of a salt).
